The record followed here is ChEMBL document CHEMBL4828774, “Novel PRMT5 Inhibitors for Treating Cancer” (ACS Med Chem Lett, 2021).

The assay is described as follows: Cytotoxicity against human HCT116-MTAP null cells assessed as reduction in cell viability incubated for 6 days by CellTiter-Glo luminescent assay. It counts as functional, cell-based. As to conditions: 144 h. Background: Cellular ATP, detected with luciferase, serves as a proxy for viable cell number.
For the compound `Cc1cc2cc(C(=O)N(Cc3ccc(C(F)(F)F)cn3)[C@@H]3CCCc4cn[nH]c43)ccc2nc1N`, the IC50 was 0.01 µM. Under `Cc1cc2cc(C(=O)N(Cc3ccc(Br)cn3)[C@H](C)c3ncccn3)ccc2nc1N` stands 0.015 µM. On to `C[C@H](c1ncccn1)N(Cc1ccc(C(F)(F)F)nn1)C(=O)c1cnc2nc(N)c(I)cc2c1`, for which the IC50 worked out at 0.015 µM. Then `Cc1cc2cc(C(=O)N(Cc3ccc(C(F)(F)F)cn3)[C@@H]3CCOc4ccc(F)nc43)ccc2nc1N`, with 0.013 µM; and `Cc1cc2cc(C(=O)N(Cc3ccc(C(F)(F)F)cn3)[C@@H]3CCCc4nccnc43)ccc2nc1N`, with 0.012 µM.

As to `Cc1cc2cc(C(=O)N(Cc3ccc(C(F)(F)F)cn3)[C@H](C)c3cccc(F)n3)ccc2nc1N`, the IC50 came to 0.013 µM.

For orientation: IC50 means the concentration at which inhibition is half-maximal.
